Assay results from US9200001B2, “Triazolyl PDE10 inhibitors” (Merck Sharp & Dohme Corp., priority 2011, dated 2015).

target: human PDE10A2 (Homo sapiens (Human), UniProt Q9Y233); experiment: PDE10 fluorescence polarization (IMAP FP) inhibition assay; format: biochemical; conditions: FAM-labeled cAMP 50 nM, room temperature, read-out: PDE10a Ki
Protocol: The activity of the compounds in accordance with the present invention as PDE10 inhibitors may be readily determined without undue experimentation using a fluorescence polarization (FP) methodology that is well known in the art (Huang, W., et al., J. Biomol Screen, 2002, 7: 215).
In a typical experiment the PDE10 inhibitory activity of the compounds of the present invention was determined in accordance with the following experimental method. PDE10A2 was amplified from human fetal brain cDNA (Clontech, Mountain View, Calif.) using a forward primer corresponding to nucleotides 56-77 of human PDE10A2 (Accession No. AF127480, Genbank Identifier 4894716), containing a Kozak consensus sequence, and a reverse primer corresponding to nucleotides 2406-2413 of human PDE10A2 (Accession No. AF127480, Genbank Identifier 4894716). Amplification with Easy-A polymerase (Stratagene, La Jolla, Calif.) was 95° C. for 2 minutes followed by thirty three cycles of 95° C. for 40 seconds, 55° C. for 30 seconds, and 72° C. for 2 minutes 48 seconds. Final extension was 72° C. for 7 minutes. The PCR product was TA cloned into pcDNA3.2-TOPO (Invitrogen, Carlsbad, Calif.) according to standard protocol. AD293 cells with 70-80% confluency were transiently transfected with human PDE10A2/pcDNA3.2-TOPO using Lipofectamine 2000 according to manufacturer specifications (Invitrogen, Carlsbad, Calif.). Cells were harvested 48 hours post-transfection and lysed by sonication (setting 3, 10×5 sec pulses) in a buffer containing 20 mM HEPES, 1 mM EDTA and protease inhibitor cocktail (Roche). Lysate was collected by centrifugation at 75,000×g for 20 minutes. Supernatant containing the cytoplasmic fraction was used for evaluation of PDE10A2 activity. The fluorescence polarization assay for cyclic nucleotide phosphodiesterases was performed using an IMAP® FP kit supplied by Molecular Devices, Sunnyvale, Calif. (product # R8139). IMAP® technology has been applied previously to phosphodiesterase assays (Huang, W., et al., J. Biomol Screen, 2002, 7: 215). Assays were performed at room temperature in 384-well microtiter plates with an incubation volume of 20.2 μL. Solutions of test compounds were prepared in DMSO and serially diluted with DMSO to yield 8 μL of each of 10 solutions differing by 3-fold in concentration, at 32 serial dilutions per plate. 100% inhibition is determined using a known PDE10 inhibitor, which can be any compound that is present at 5,000 times its Ki value in the assay described as follows, such as papaverine (see Siuciak, et al. Neuropharmacology (2006) 51:386-396; Becker, et al. Behav Brain Res (2008) 186(2):155-60; Threlfell, et al., J Pharmacol Exp Ther (2009) 328(3):785-795), 2-{4-[pyridin-4-yl-1-(2,2,2-trifluoroethyl)-1H-pyrazol-3-yl]phenoxymethyl}quinoline succinic acid or 2-[4-(1-methyl-4-pyridin-4-yl-1H-pyrazol-3-yl)-phenoxymethyl]quinoline succinic acid (see Schmidt, et al. J Pharmacol Exp Ther (2008) 325:681-690; Threlfall, et al., J Pharmacol Exp Ther (2009) 328(3): 785-795). 0% of inhibition is determined by using DMSO (1% final concentrations).
A Labcyte Echo 555 (Labcyte, Sunnyvale, Calif.) is used to dispense 200 nL from each well of the titration plate to the 384 well assay plate. A solution of enzyme (1/1600 dilution from aliquots; sufficient to produce 20% substrate conversion) and a separate solution of FAM-labeled cAMP PDE from Molecular Devices (product # R7506), at a final concentration of 50 nM are made in the assay buffer (10 mM Tris HCl, pH 7.2, 10 mM MgCl2, 0.05% NaN3 0.01% Tween-20, and 1 mM DTT). The enzyme and the substrate are then added to the assay plates in two consecutive additions of 10 μL, and then shaken to mix. The reaction is allowed to proceed at room temperature for 30 minutes. A binding solution is then made from the kit components, comprised of 80% Solution A, 20% Solution B and binding reagent at a volume of 1600 the total binding solution. […]

Chain of human PDE10A2 (Q9Y233 267-1055): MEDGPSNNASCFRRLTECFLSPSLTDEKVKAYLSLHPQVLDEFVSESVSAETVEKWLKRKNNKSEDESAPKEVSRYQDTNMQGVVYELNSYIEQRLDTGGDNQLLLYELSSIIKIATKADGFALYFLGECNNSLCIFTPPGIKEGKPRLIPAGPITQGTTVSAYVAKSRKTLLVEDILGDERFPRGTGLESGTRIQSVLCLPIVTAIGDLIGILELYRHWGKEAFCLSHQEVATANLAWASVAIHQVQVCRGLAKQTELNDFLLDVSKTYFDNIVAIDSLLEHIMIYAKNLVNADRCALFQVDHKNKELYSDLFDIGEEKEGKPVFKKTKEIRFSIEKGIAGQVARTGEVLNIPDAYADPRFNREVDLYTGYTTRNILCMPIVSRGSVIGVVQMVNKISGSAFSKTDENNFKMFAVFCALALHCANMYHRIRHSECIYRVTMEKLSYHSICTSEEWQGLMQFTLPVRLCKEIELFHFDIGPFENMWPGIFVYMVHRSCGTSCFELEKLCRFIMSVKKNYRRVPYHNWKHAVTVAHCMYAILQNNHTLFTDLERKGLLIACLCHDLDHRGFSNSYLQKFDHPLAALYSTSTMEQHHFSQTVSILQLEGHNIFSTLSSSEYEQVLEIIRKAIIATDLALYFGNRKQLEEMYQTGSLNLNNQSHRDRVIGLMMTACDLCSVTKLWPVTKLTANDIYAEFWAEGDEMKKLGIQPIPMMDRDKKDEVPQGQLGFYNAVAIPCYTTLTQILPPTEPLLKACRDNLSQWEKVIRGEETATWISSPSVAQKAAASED

Structure (SMILES) | Ki [nM]
COc1ccc(Cc2nc(C)nn2-c2cc([C@H]3C[C@H]3c3ccc4ncccc4n3)nc(C)n2)cc1OC (relative stereo) [Cpd 34, Cis-2-(2-(6-(5-(3,4-dimethoxybenzyl)-3-methyl-1H-1,2,4-triazol-1-yl)-2-methylpyrimidin-4-yl)cyclopropyl)-1,5-naphthyridine] | 0.068
Cc1nc(CCc2ccc3ncccc3n2)cc(-n2nc(C)nc2C)n1 [Cpd 99, 2-{2-[6-(3,5-dimethyl-1H-1,2,4-triazol-1-yl)-2-methylpyrimidin-4-yl]ethyl}-1,5-naphthyridine] | 73
CCc1nc(C)nn1-c1cc([C@H]2C[C@@H]2c2nc3ccccc3n2C)nc(C)n1 (stereo in doubt) [Cpd 83, 2-{2-[6-(5-ethyl-3-methyl-1H-1,2,4-triazol-1-yl)-2-methylpyrimidin-4-yl]cyclopropyl}-1-methyl-1H-benzimidazole] | 0.96
Cc1nc(C)n(-c2cc([C@@H]3C[C@H]3c3nc4ccccc4n3C)nc(N3CC(F)(F)C3)n2)n1 [Cpd 132, 2-((1R,2R)-2-(2-(3,3-difluoroazetidin-1-yl)-6-(3,5-dimethyl-1H-1,2,4-triazol-1-yl)pyrimidin-4-yl)cyclopropyl)-1-methyl-1H-benzo[d]imidazole] | 0.75
CNc1nc([C@@H]2C[C@H]2c2nc3ccccc3n2C)cc(-n2nc(C)nc2C)n1 [Cpd 62, 4-(3,5-dimethyl-1H-1,2,4-triazol-1-yl)-N-methyl-6-[(1R,2R)-2-(1-methyl-1H-benzimidazol-2-yl)cyclopropyl]pyrimidin-2-amine] | 0.77
Cc1nc([C@H]2C[C@@H]2c2nc3ccccc3n2C)cc(-n2nc(C)nc2C2CCCCC2)n1 (stereo in doubt) [Cpd 79, 2-{2-[6-(5-cyclohexyl-3-methyl-1H-1,2,4-triazol-1-yl)-2-methylpyrimidin-4-yl]cyclopropyl}-1-methyl-1H-benzimidazole] | 2.5
Cc1nc([C@H]2C[C@@H]2c2nc3ccccc3n2C)cc(-n2nc(C)nc2-c2cccnc2)n1 (stereo in doubt) [Cpd 81, 1-methyl-2-{2-[2-methyl-6-(3-methyl-5-pyridin-3-yl-1H-1,2,4-triazol-1-yl)pyrimidin-4-yl]cyclopropyl}-1H-benzimidazole] | 12.8
COC[C@@H](C)Oc1nc([C@@H]2C[C@H]2c2nc3ccccc3n2C)cc(-n2nc(C)nc2C)n1 [Cpd 66, 2-[(1R,2R)-2-{6-(3,5-dimethyl-1H-1,2,4-triazol-1-yl)-2-[(1R)-2-methoxy-1-methylethoxy]pyrimidin-4-yl}cyclopropyl]-1-methyl-1H-benzimidazole] | 0.63
Cc1ccc(CCc2cc(-n3nc(C)nc3C)nc(C)n2)nc1 [Cpd 50, 4-(3,5-dimethyl-1H-1,2,4-triazol-1-yl)-2-methyl-6-(2-(5-methylpyridin-2-yl)ethyl)pyrimidine] | 0.14
Cc1nc([C@@H]2C[C@H]2c2nc3ccccc3n2CC2CCCO2)cc(-n2nc(C)nc2C)n1 (stereo in doubt) [Cpd 75, 2-{2-[6-(3,5-dimethyl-1H-1,2,4-triazol-1-yl)-2-methylpyrimidin-4-yl]cyclopropyl}-1-(tetrahydrofuran-2-ylmethyl)-1H-benzimidazole] | 13
Cc1nc([C@H]2C[C@@H]2c2nc3ccccc3s2)cc(-n2nc(C)nc2C)n1 (relative stereo) [Cpd 129, trans-2-{2-[6-(3,5-dimethyl-1H-1,2,4-triazol-1-yl)-2-methylpyrimidin-4-yl]cyclopropyl}-1,3-benzothiazole] | 43
Cc1nc(C)n(-c2cc([C@H]3C[C@@H]3c3nc4ccccc4n3C)nc(NC(C)C)n2)n1 (relative stereo) [Cpd 115, trans-4-(3,5-dimethyl-1H-1,2,4-triazol-1-yl)-6-[2-(1-methyl-1H-benzimidazol-2-yl)cyclopropyl]-N-(1-methylethyl)pyrimidin-2-amine] | 1.9
Cc1nc([C@@H]2C[C@H]2c2nc3ccccc3[nH]2)cc(-n2nc(C)nc2C)n1 [Cpd 89, 2-{(1R,2R)-2-[6-(3,5-dimethyl-1H-1,2,4-triazol-1-yl)-2-methylpyrimidin-4-yl]cyclopropyl}-1H-benzimidazole] | 2.6
COc1ccc(Cc2nc(C)nn2-c2cc(C3CC3c3nnc(C)o3)nc(C)n2)cc1OC (centres unmarked) [Cpd 27, 2-(2-(6-(5-(3,4-dimethoxybenzyl)-3-methyl-1H-1,2,4-triazol-1-yl)-2-methylpyrimidin-4-yl)cyclopropyl)-5-methyl-1,3,4-oxadiazole] | 88
Cc1nc(C)n(-c2cc([C@@H]3C[C@H]3c3nc4ccccc4n3C)nc(C#N)n2)n1 [Cpd 61, 4-(3,5-dimethyl-1H-1,2,4-triazol-1-yl)-6-[(1R,2R)-2-(1-methyl-1H-benzimidazol-2-yl)cyclopropyl]primidine-2-carbonitrile] | 0.085
COc1ccc(Cc2nc(C)nn2-c2cc(CCc3ccc4ccccc4n3)nc(C)n2)cc1OC [Cpd 3, 2-(2-(6-(5-(3,4-dimethoxybenzyl)-3-methyl-1H-1,2,4-triazol-1-yl)-2-methylpyrimidin-4-yl)ethyl)quinoline] | 0.004
Cc1nc([C@@H]2C[C@H]2c2nc3ccccc3n2C)cc(-n2nc(C)nc2C)n1 [Cpd 37, 2-((1R,2R)-2-(6-(3,5-dimethyl-1H-1,2,4-triazol-1-yl)-2-methylpyrimidin-4-yl)cyclopropyl)-1-methyl-1H-benzo[d]imidazole] | 1.4
Cc1nc(C)n(-c2cc([C@H]3C[C@@H]3c3nc4ccccc4n3C)nc(C3CC3)n2)n1 (relative stereo) [Cpd 112, trans-2-{2-[2-cyclopropyl-6-(3,5-dimethyl-1H-1,2,4-triazol-1-yl)pyrimidin-4-yl]cyclopropyl}-1-methyl-1H-benzimidazole] | 0.68
COc1ccc(Cc2nc(C)nn2-c2cc(/C=C/c3ccc(C)cn3)nc(C)n2)cc1OC [Cpd 20, (E)-4-(5-(3,4-dimethoxybenzyl)-3-methyl-1H-1,2,4-triazol-1-yl)-2-methyl-6-(2-(5-methylpyridin-2-yl)vinyl)pyrimidine] | 0.11
Cc1ccc2nc(C3CC3c3cc(-n4nc(C)nc4C)nc(C)n3)[nH]c2c1 (centres unmarked) [Cpd 58, 2-(2-(6-(3,5-dimethyl-1H-1,2,4-triazol-1-yl)-2-methylpyrimidin-4-yl)cyclopropyl)-6-methyl-1H-benzo[d]imidazole] | 34.9
COc1ccc(Cc2nc(C)nn2-c2cc(CCc3ccc(C)cn3)nc(C)n2)cc1OC [Cpd 5, 4-(5-(3,4-dimethoxybenzyl)-3-methyl-1H-1,2,4-triazol-1-yl)-2-methyl-6-(2-(5-methylpyridin-2-yl)ethyl)pyrimidine] | 0.14
COc1ccc(Cc2nc(C)nn2-c2cc(C3CC3c3nc4ccccc4[nH]3)nc(C)n2)cc1OC (centres unmarked) [Cpd 38, 2-(2-(6-(5-(3,4-dimethoxybenzyl)-3-methyl-1H-1,2,4-triazol-1-yl)-2-methylpyrimidin-4-yl)cyclopropyl)-1H-benzo[d]imidazole] | 0.005
Cc1nc(C)n(-c2cc([C@@H]3C[C@H]3c3nc4ccccc4n3C)nc(OC3CCC3)n2)n1 [Cpd 136, 2-((1R,2R)-2-(2-cyclobutoxy-6-(3,5-dimethyl-1H-1,2,4-triazol-1-yl)pyrimidin-4-yl)cyclopropyl)-1-methyl-1H-benzo[d]imidazole] | 0.42
